Laboratory results: US6737383B1, “Herbicidal oxadiazolidines” (priority 1999, dated 2004)

Legend:
[1] = test system: corn; assay: Test B pre/postemergence corn; format: in vivo, Zea mays
How it was run: (§1)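 Test chemicals in a non-phytotoxic solvent mixture with surfactant were sprayed preemergence onto planted seeds and postemergence onto plants 2 to 18 cm tall (1- to 4-leaf stage). After twelve to sixteen days in a greenhouse, injury was visually rated against untreated controls from 0 (no effect) to 10 (complete control).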

[2] = test system: duck salad; assay: Test B flood test duck salad; format: in vivo, Heteranthera limosa
How it was run: (§2)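 Flood test on plants grown to the 2-leaf stage; treated plants kept in greenhouse twelve to sixteen days, then visually rated against controls on a 0 (no effect) to 10 (complete control) scale.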

[3] = test system: rice; assay: Test B flood test rice; format: in vivo, Oryza sativa
How it was run: as §2

[4] = test system: smallflower flatsedge; assay: Test B flood test smallflower flatsedge; format: in vivo, Cyperus difformis
How it was run: as §2

[5] = test system: morningglory; assay: Test B pre/postemergence morningglory; format: in vivo, Ipomoea hederacea
How it was run: as §1

[6] = test system: wheat; assay: Test B pre/postemergence wheat; format: in vivo, Triticum aestivum
How it was run: as §1

[7] = test system: wild oat; assay: Test B pre/postemergence wild oat; format: in vivo, Avena fatua
How it was run: as §1

[8] = test system: cocklebur; assay: Test B pre/postemergence cocklebur; format: in vivo, Xanthium strumarium
How it was run: as §1

[9] = test system: sugar beet; assay: Test B pre/postemergence sugar beet; format: in vivo, Beta vulgaris
How it was run: as §1

[10] = test system: crabgrass; assay: Test B pre/postemergence crabgrass; format: in vivo, Digitaria sanguinalis
How it was run: as §1

[11] = test system: rape; assay: Test B pre/postemergence rape; format: in vivo, Brassica napus
How it was run: as §1

[12] = test system: giant foxtail; assay: Test B pre/postemergence giant foxtail; format: in vivo, Setaria faberii
How it was run: as §1

[13] = test system: surinam grass; assay: Test B pre/postemergence surinam grass; format: in vivo, Brachiaria decumbens
How it was run: as §1

[14] = test system: bamyardgrass; assay: Test B flood test barnyardgrass; format: in vivo, Echinochloa crus-galli
How it was run: as §2

[15] = test system: pigweed; assay: Test B pre/postemergence pigweed; format: in vivo, Amaranthus retroflexus
How it was run: as §1

[16] = test system: purple nutsedge; assay: Test B pre/postemergence purple nutsedge; format: in vivo, Cyperus rotundus
How it was run: as §1

[17] = Preemergence, Rate 62 g/ha, scale of 0 to 10 where 0 is no effect and 10 is complete control
[18] = Preemergence, Rate 250 g/ha, scale 0 to 10, 0 is no effect, 10 is complete control
[19] = Preemergence, Rate 500 g/ha, scale of 0 to 10 where 0 is no effect and 10 is complete control
[20] = Rate 62 g/ha, Postemergence, scale of 0 to 10 where 0 is no effect and 10 is complete control
[21] = Rate 125 g/ha, Postemergence, scale 0 to 10
[22] = Rate 125 g/ha, Preemergence, scale of 0 to 10 where 0 is no effect and 10 is complete control
[23] = Rate 500 g/ha, Postemergence, scale 0 to 10
[24] = Rate 62 g/ha, headed Pre-emergence (flood test species), scale 0 to 10 (0 no effect, 10 complete control)
[25] = Rate 125 g/ha, Pre-emergence, flood test species, scale 0 to 10 where 0 is no effect and 10 is complete control
[26] = Rate 250 g/ha, Pre-emergence, flood-test species, scale 0 to 10, 0 is no effect, 10 is complete control
[27] = Rate 500 g/ha, Pre-emergence, flood test species, scale 0 to 10 (0 no effect, 10 complete control)

In the case of `CC(C)N(C(=O)n1oc(=O)n(CC=Cc2ccccc2)c1=O)c1ccc(F)cc1` [Compound 210], the “Corn plant response rating” value [1, 17] was 0, the “Corn plant response rating” value [1, 18] was 0 and the “Plant response rating, Corn” value [1, 19] was 0. For the same compound, the “Corn plant response rating” value [1, 20] was 0, the “Corn plant response rating” value [1, 21] was 0 and the “Corn plant response rating” value [1, 22] was 0. For the same compound, the “Plant response rating (0 to 10; 0 is no effect, 10 is complete control), Corn” value ([1]; Rate 250 g/ha, Postemergence) was 0, the “Corn plant response rating” value [1, 23] was 0 and the “Ducksalad plant response rating” value [2, 24] was 0. For the same compound, the “Ducksalad plant response rating” value [2, 25] was 0, the “Ducksalad plant response rating” value [2, 26] was 0 and the “Ducksalad plant response rating” value [2, 27] was 0. For the same compound, the “Rice plant response rating” value [3, 24] was 0, the “Rice plant response rating” value [3, 25] was 0 and the “Rice plant response rating” value [3, 26] was 0. For the same compound, the “Rice plant response rating” value [3, 27] was 0, the “S. Flatsedge plant response rating” value [4, 24] was 0 and the “S. Flatsedge plant response rating” value [4, 25] was 0. The “S. Flatsedge plant response rating” value [4, 26] was 0, the “S. Flatsedge plant response rating” value [4, 27] was 0 and the “Morningglory plant response rating” value [5, 17] was 0. The “Morningglory plant response rating” value [5, 18] was 0, the “Plant response rating, Morningglory” value [5, 19] was 0 and the “Morningglory plant response rating” value [5, 20] was 2. The “Morningglory plant response rating” value [5, 21] was 2, the “Morningglory plant response rating” value [5, 22] was 0 and the “Plant response rating (0 to 10; 0 is no effect, 10 is complete control), Morningglory” value ([5]; Rate 250 g/ha, Postemergence) was 3. The “Morningglory plant response rating” value [5, 23] was 7, the “Wheat plant response rating” value [6, 17] was 0 and the “Wheat plant response rating” value [6, 18] was 0. For the same compound, the “Plant response rating, Wheat” value [6, 19] was 0, the “Wheat plant response rating” value [6, 20] was 0 and the “Wheat plant response rating” value [6, 21] was 0. For the same compound, the “Wheat plant response rating” value [6, 22] was 0, the “Plant response rating (0 to 10; 0 is no effect, 10 is complete control), Wheat” value ([6]; Rate 250 g/ha, Postemergence) was 0 and the “Wild oats plant response rating” value [7, 17] was 0. For the same compound, the “Wild oats plant response rating” value [7, 18] was 2, the “Plant response rating, Wild oats” value [7, 19] was 2 and the “Wild oats plant response rating” value [7, 20] was 0. For the same compound, the “Wild oats plant response rating” value [7, 21] was 0, the “Wild oats plant response rating” value [7, 22] was 0 and the “Plant response rating (0 to 10; 0 is no effect, 10 is complete control), Wild oats” value ([7]; Rate 250 g/ha, Postemergence) was 0. The “Cocklebur plant response rating” value [8, 17] was 0, the “Cocklebur plant response rating” value [8, 18] was 0 and the “Plant response rating, Cocklebur” value [8, 19] was 0. For the same compound, the “Cocklebur plant response rating” value [8, 20] was 0, the “Cocklebur plant response rating” value [8, 21] was 0 and the “Cocklebur plant response rating” value [8, 22] was 0. For the same compound, the “Plant response rating (0 to 10; 0 is no effect, 10 is complete control), Cocklebur” value ([8]; Rate 250 g/ha, Postemergence) was 0, the “Cocklebur plant response rating” value [8, 23] was 2 and the “Sugarbeets plant response rating” value [9, 17] was 0. For the same compound, the “Sugarbeets plant response rating” value [9, 18] was 0, the “Plant response rating, Sugarbeets” value [9, 19] was 3 and the “Sugarbeets plant response rating” value [9, 20] was 0. For the same compound, the “Sugarbeets plant response rating” value [9, 21] was 0, the “Sugarbeets plant response rating” value [9, 22] was 0 and the “Plant response rating (0 to 10; 0 is no effect, 10 is complete control), Sugarbeets” value ([9]; Rate 250 g/ha, Postemergence) was 0. The “Sugarbeets plant response rating” value [9, 23] was 4, the “Crabgrass plant response rating” value [10, 17] was 0 and the “Crabgrass plant response rating” value [10, 18] was 3. The “Plant response rating, Crabgrass” value [10, 19] was 8, the “Crabgrass plant response rating” value [10, 20] was 0 and the “Crabgrass plant response rating” value [10, 21] was 0. For the same compound, the “Crabgrass plant response rating” value [10, 22] was 0, the “Plant response rating (0 to 10; 0 is no effect, 10 is complete control), Crabgrass” value ([10]; Rate 250 g/ha, Postemergence) was 0 and the “Crabgrass plant response rating” value [10, 23] was 0. For the same compound, the “Rape plant response rating” value [11, 17] was 0, the “Rape plant response rating” value [11, 18] was 0 and the “Plant response rating, Rape” value [11, 19] was 3. The “Rape plant response rating” value [11, 20] was 0, the “Rape plant response rating” value [11, 21] was 0 and the “Rape plant response rating” value [11, 22] was 0. For the same compound, the “Plant response rating (0 to 10; 0 is no effect, 10 is complete control), Rape” value ([11]; Rate 250 g/ha, Postemergence) was 0, the “Rape plant response rating” value [11, 23] was 0 and the “Giant foxtail plant response rating” value [12, 17] was 0. The “Giant foxtail plant response rating” value [12, 18] was 3, the “Plant response rating, Giant foxtail” value [12, 19] was 5 and the “Giant foxtail plant response rating” value [12, 20] was 0. The “Giant foxtail plant response rating” value [12, 21] was 0, the “Giant foxtail plant response rating” value [12, 22] was 0 and the “Plant response rating (0 to 10; 0 is no effect, 10 is complete control), Giant foxtail” value ([12]; Rate 250 g/ha, Postemergence) was 0. The “Giant foxtail plant response rating” value [12, 23] was 0, the “B. signalgrass plant response rating” value [13, 17] was 0 and the “B. signalgrass plant response rating” value [13, 18] was 0. For the same compound, the “Plant response rating, B. signalgrass” value [13, 19] was 0, the “B. signalgrass plant response rating” value [13, 20] was 0 and the “B. signalgrass plant response rating” value ([13]; Rate 125 g/ha, Postemergence, scale 0 (no effect) to 10 (complete control)) was 0. The “B. signalgrass plant response rating” value [13, 22] was 0, the “Plant response rating (0 to 10; 0 is no effect, 10 is complete control), B. signalgrass” value ([13]; Rate 250 g/ha, Postemergence) was 0 and the “B. signalgrass plant response rating” value ([13]; Rate 500 g/ha, Postemergence, scale 0 to 10, 0 no effect, 10 complete control) was 0. The “Barnyardgrass plant response rating” value [14, 24] was 0, the “Barnyardgrass plant response rating” value [14, 25] was 0 and the “Barnyardgrass plant response rating” value [14, 26] was 0. The “Barnyardgrass plant response rating” value [14, 27] was 0, the “Redroot pigweed plant response rating” value [15, 17] was 0 and the “Redroot pigweed plant response rating” value [15, 18] was 2. For the same compound, the “Plant response rating, Redroot pigweed” value [15, 19] was 8, the “Redroot pigweed plant response rating” value [15, 20] was 0 and the “Redroot pigweed plant response rating” value [15, 21] was 0. For the same compound, the “Redroot pigweed plant response rating” value [15, 22] was 0, the “Plant response rating (0 to 10; 0 is no effect, 10 is complete control), Redroot pigweed” value ([15]; Rate 250 g/ha, Postemergence) was 2 and the “Redroot pigweed plant response rating” value [15, 23] was 6. The “Nutsedge plant response rating” value [16, 17] was 0, the “Nutsedge plant response rating” value [16, 18] was 0 and the “Plant response rating, Nutsedge” value [16, 19] was 0. For the same compound, the “Nutsedge plant response rating” value [16, 20] was 0, the “Nutsedge plant response rating” value [16, 21] was 0 and the “Nutsedge plant response rating” value [16, 22] was 0. For the same compound, the “Plant response rating (0 to 10; 0 is no effect, 10 is complete control), Nutsedge” value ([16]; Rate 250 g/ha, Postemergence) was 0 and the “Nutsedge plant response rating” value [16, 23] was 0.
